Experimental data reported in patent publication US12103900B2, “Environment-friendly process for selective acylation of aminophenol” (LAXMI ORGANIC INDUSTRIES LTD, priority 2020, dated 2024).

Assay: Analysis of solubility of paracetamol batches (Table 2)
Assay type: physicochemical
Conditions: limit: soluble in ethanol (95%) and in acetone, sparingly soluble in water, very slightly soluble in dichloro-methane and ether
Procedure: For the analysis of solubility, the paracetamol obtained using the present invention should be soluble in ethanol (95%) and soluble in acetone, sparingly soluble in water, very slightly soluble in dichloro-methane and ether. For identification purpose, the IR spectra should match the standard IR spectrum. The impurities were determined according to European and Indian pharmacopeia.

## CC(=O)Nc1ccc(O)cc1 [Ex. 9, N-acetyl-para-aminophenol]
  Solubility: Complies
